Measured values reported in paper PMC11672400, “Synthesis, Spectroscopic Characterization, Structural Analysis, and Evaluation of Anti-Tumor, Antimicrobial, and Antibiofilm Activities of Halogenoaminopyrazoles Derivatives” (Antibiotics, 2024).
Converted amounts (≈) assume the structure as drawn. Read-outs that look alike come from different tables or passages of the source. Blank lines part the entries; values can stand above or below the molecule they belong to.

Tests used:
[1] = MTT cell viability / cytotoxicity on normal fibroblasts; type: cell-based, mouse; settings: mouse, NCTC clone 929 (L929) mouse fibroblast cells
Source text: Merck chemicals were utilized.
Untreated cells were used as control, considered 100% viable cells.

[2] = system: Enterococcus faecalis ATCC29212; test: Qualitative evaluation of antimicrobial activity (inhibition zone, spot on agar); type: cell-based; parameters: key: (+) inhibited bacterial growth; (-) did not inhibit bacterial growth; settings: 0.06 g/2 mL DMSO, 5 µL spot
Procedure: (§1) For testing the antimicrobial/antibiofilm activity, the concentration of the studied compounds was identical to 0.06 g/2 mL DMSO. 0.5 Standard McFarland suspension was used, which was inoculated onto Mueller Hinton agar plates, (Remel, Lenexa, KS, USA), 5 µL of each compound was spotted and incubated overnight at 37 °C. Antimicrobial activity was observed as zones of inhibition formed around the spot.

[3] = system: Escherichia coli ATCC25922; test: as above; type: cell-based; parameters: key: (+) inhibited bacterial growth; (-) did not inhibit bacterial growth; settings: 0.06 g/2 mL DMSO, 5 µL spot
Procedure: as §1

[4] = system: Pseudomonas aeruginosa ATCC27853; test: as above; type: cell-based; parameters: key: (+) inhibited bacterial growth; (-) did not inhibit bacterial growth; settings: 0.06 g/2 mL DMSO, 5 µL spot
Procedure: as §1

[5] = system: Staphylococcus aureus ATCC25923; test: as above; type: cell-based; parameters: key: (+) inhibited bacterial growth; (-) did not inhibit bacterial growth; settings: 0.06 g/2 mL DMSO, 5 µL spot
Procedure: as §1

[6] = system: Enterococcus faecalis ATCC29212; test: MIC by serial microdilution in liquid medium; type: cell-based; settings: Enterococcus faecalis, ATCC29212; 24 h, 37 °C; read-out: Minimum inhibitory concentration, Enterococcus faecalis ATCC29212
Procedure: (§2) The minimum inhibitory concentrations (MIC) were determined by the serial microdilution method in a liquid medium (Tryptone Soy Broth), on 96-well plates. Serial binary dilutions of the compound stock solution (10 mg/mL in DMSO) were carried out in 90 µL of culture medium and 10 µL of 10^6 CFU/mL (Colony Forming Units) microbial suspension. Each test included a positive control (wells with culture medium and microbial suspension) and a negative control for medium sterility. After incubation at 37 °C for 24 h the plates were visually examined, and optical density was measured at 620 nm. […] The MIC value (µg/mL) for the chemical compound was determined by the concentration in the final well without bacterial growth. All experiments were performed in triplicate.

[7] = system: Escherichia coli ATCC25922; test: MIC by serial microdilution in liquid medium; type: cell-based; settings: 24 h, 37 °C; for MIC: Escherichia coli, ATCC25922, read-out: Minimum inhibitory concentration, Escherichia coli ATCC25922
Procedure: as §2

[8] = system: Pseudomonas aeruginosa ATCC27853; test: MIC by serial microdilution in liquid medium; type: cell-based; settings: Pseudomonas aeruginosa, ATCC27853; 24 h, 37 °C; read-out: Minimum inhibitory concentration, Pseudomonas aeruginosa ATCC27853
Procedure: as §2

[9] = system: Staphylococcus aureus ATCC25923; test: MIC by serial microdilution in liquid medium; type: cell-based; settings: 24 h, 37 °C; for MIC: Staphylococcus aureus, ATCC25923, read-out: Minimum inhibitory concentration, Staphylococcus aureus ATCC25923
Procedure: as §2

[10] = system: Escherichia coli ATCC25922; test: Antibiofilm assay (crystal violet), MBIC; type: cell-based; settings: 37 °C; for minimal effective concentration: Escherichia coli, ATCC25922, 24 h, read-out: Minimum biofilm inhibition concentration (MBIC), Escherichia coli ATCC25922
Procedure: (§3) Microorganisms were grown in 96-well plates filled with nutrient broth along with test substances, followed by incubation at 37 °C for 24 h. Plates were cleaned and rinsed thrice using SPW solution (sterile physiological water). After that, the attached cells were treated with 110 μL of methanol for 5 min, and then the methanol was removed by turning it upside down. […] Once stained, the solution was removed, and the plates were washed with running tap water. […] The antimicrobial/antibiofilm activity of the compounds was evaluated against two antibiotics, commercial formulations of metronidazole and nitrofurantoin.

[11] = system: Pseudomonas aeruginosa ATCC27853; test: Antibiofilm assay (crystal violet), MBIC; type: cell-based; settings: 37 °C; for minimal effective concentration: Pseudomonas aeruginosa, ATCC27853, 24 h, read-out: Minimum biofilm inhibition concentration (MBIC), Pseudomonas aeruginosa ATCC27853
Procedure: as §3

[12] = system: Staphylococcus aureus ATCC25923; test: Antibiofilm assay (crystal violet), MBIC; type: cell-based; settings: 24 h, 37 °C; for minimal effective concentration: Staphylococcus aureus, ATCC25923, read-out: Minimum biofilm inhibition concentration (MBIC), Staphylococcus aureus ATCC25923
Procedure: as §3

[13] = system: HEp-2 epithelial tumor cells; test: MTT cell viability / anti-tumor activity; settings: Homo sapiens, read-out: Cell viability on Hep2 cells (%)
Procedure: The cytotoxicity of the halogenoaminopyrazole derivatives 4a–f and 5a–e was tested on L929 mouse fibroblast cells, and their anti-tumor activity was evaluated on the human carcinoma epithelial cell line HEp-2. The experiments were performed in a concentration range of 3.1–50 μg/mL.
The MTT test was used, 3-(4,5-dimethylthiazol-2-yl)-2,5-diphenyl tetrazolium bromide), which is reduced to insoluble purple-blue formazan crystals precipitated by living cells. Cell viability assessed using the MTT assay reflects the activity of mitochondrial enzymes in treated cells compared to the control culture of untreated cells.
To assess the biocompatibility of the substances, a stable mouse fibroblast cell line, NCTC (clone 929), was grown in minimal essential medium (MEM) with 10% fetal bovine serum (FBS) and 2 mM L-glutamine, along with 100 U/mL penicillin, 100 µg/mL streptomycin, and 500 µg/mL neomycin. The concentration of the compounds used was 0.06 g/2 mL DMSO.
In cytotoxicity experiments, compound solutions were utilized at concentrations of 3.1 μg/mL, 6.25 μg/mL, 12.5 μg/mL, 25 μg/mL, and 50 μg/mL. The NCTC cell suspension was placed into 96-well culture plates with a concentration of 4 × 10^4 cells/mL and incubated at 37 °C for 24 h in a 5% CO2 humidified atmosphere. The compounds under study were placed in sets of three at varying concentrations ranging from 3.1 μg/mL to 50 μg/mL in every well, and the plates were then kept under standard conditions for 48 h. Cell viability was determined through the utilization of the MTT assay. Next, the MTT solution was removed, then isopropanol was added to solubilize the formazan crystals. The colored solution was then measured for absorbance at 570 nm using a Berthold Technologies, LB 940 microplate reader (Bad Wildbad, Germany). The outcomes were determined based on Formula (1) while considering that the recorded optical density is directly related to the number of viable cells in the cell culture being examined [35, 36]. % cell viability = (OD sample/OD control) × 100%(1)
For each tested compound, a graph representing percentage cell viability versus concentrations (in the range 3.1–50 µg/mL) was obtained. Then, the IC50 value was calculated by using ED50 plus V1.0 software.

[14] = system: Enterococcus faecalis ATCC29212; test: Antibiofilm assay (crystal violet), MBIC; type: cell-based; settings: Enterococcus faecalis, ATCC29212, 24 h, 37 °C, read-out: Minimum biofilm inhibition concentration (MBIC), Enterococcus faecalis ATCC29212
Procedure: as §3

MIC [6]: 930 ± 0.04 µg/mL (≈ 3310 µM)
MIC [7]: 460 µg/mL (≈ 1640 µM)
MIC [8]: 460 ± 0.03 µg/mL (≈ 1640 µM)
MIC [9]: 460 µg/mL (≈ 1640 µM)
melting point: 134 to 135 °C
SMILES: Cc1nn(CNc2ccccc2Cl)c(C)c1[N+](=O)[O-] [4f, N-[(3,5-dimetyl-4-nitro-1H-pyrazol-1-yl)-methyl]-2-chloroaniline]
viability at 24 h, 3.1 µg/mL ([1]; 3.1 µg/mL, 24h): 107 ± 1.61%
viability at 48 h, 3.1 µg/mL ([1]; 3.1 µg/mL, 48h): 99.6 ± 1.2%
viability at 24 h, 6.25 µg/mL ([1]; 6.25 µg/mL, 24h): 108 ± 1.6%
viability at 48 h, 6.25 µg/mL ([1]; 6.25 µg/mL, 48h): 106 ± 1.7%
viability at 24 h, 12.5 µg/mL ([1]; 12.5 µg/mL, 24h): 103 ± 1.05%
viability at 48 h, 12.5 µg/mL ([1]; 12.5 µg/mL, 48h): 103.1 ± 0.68%
viability at 24 h, 25 µg/mL ([1]; 25 µg/mL, 24h): 93.7 ± 2.77%
viability at 48 h, 25 µg/mL ([1]; 25 µg/mL, 48h): 97.8 ± 2.35%
viability at 24 h, 50 µg/mL ([1]; 50 µg/mL, 24h): 87.7 ± 1.77%
viability at 48 h, 50 µg/mL ([1]; 50 µg/mL, 48h): 80.5 ± 1.16%
Qualitative antimicrobial activity, Enterococcus faecalis ATCC29212 [2]: -
Qualitative antimicrobial activity, Escherichia coli ATCC25922 [3]: +
Qualitative antimicrobial activity, Pseudomonas aeruginosa ATCC27853 [4]: +
Qualitative antimicrobial activity, Staphylococcus aureus ATCC25923 [5]: +
Minimum inhibitory concentration, Escherichia coli ATCC25922 [7]: 460 ± 0.02 µg/mL (≈ 1640 µM)
Minimum inhibitory concentration, Staphylococcus aureus ATCC25923 [9]: 460 ± 0.01 µg/mL (≈ 1640 µM)
Minimum biofilm inhibition concentration (MBIC), Escherichia coli ATCC25922 ([10]; 24 h): 460 ± 0.02 µg/mL
minimal effective concentration [10]: 460 µg/mL
Minimum biofilm inhibition concentration (MBIC), Pseudomonas aeruginosa ATCC27853 ([11]; 24 h): 460 ± 0.01 µg/mL
minimal effective concentration [11]: 460 µg/mL
Minimum biofilm inhibition concentration (MBIC), Staphylococcus aureus ATCC25923 [12]: 460 ± 0.02 µg/mL
minimal effective concentration [12]: 460 µg/mL
viability at 3.1 µg/mL ([13]; HEp-2, 24 h): 98.3 ± 1.16%
viability at 6.25 µg/mL ([13]; HEp-2, 24 h): 98.61 ± 0.72%
viability at 12.5 µg/mL ([13]; HEp-2, 24 h): 95.5 ± 2.45%
viability at 25 µg/mL ([13]; HEp-2, 24 h): 94.3 ± 2.78%
viability at 50 µg/mL ([13]; HEp-2, 24 h): 93.9 ± 1.03%
viability at 3.1 µg/mL ([13]; HEp-2, 48 h): 98.3 ± 3.38%
viability at 6.25 µg/mL ([13]; HEp-2, 48 h): 97.74 ± 0.62%
viability at 12.5 µg/mL ([13]; HEp-2, 48 h): 93.63 ± 0.75%
viability at 25 µg/mL ([13]; HEp-2, 48 h): 86 ± 0.93%
viability at 50 µg/mL ([13]; HEp-2, 48 h): 72.8 ± 2.33%

MIC [6]: 970 ± 0.17 µg/mL (≈ 5670 µM)
MIC [7]: 1950 ± 0.05 µg/mL (≈ 11400 µM)
MIC [8]: 1562 ± 0.03 µg/mL (≈ 9130 µM)
MIC [9]: 1950 ± 0.05 µg/mL (≈ 11400 µM)
SMILES: Cc1ncc([N+](=O)[O-])n1CCO [Metronidazole, metronidazole, reference compound]
Qualitative antimicrobial activity, Enterococcus faecalis ATCC29212 [2]: +
Qualitative antimicrobial activity, Escherichia coli ATCC25922 [3]: +
Qualitative antimicrobial activity, Pseudomonas aeruginosa ATCC27853 [4]: +
Qualitative antimicrobial activity, Staphylococcus aureus ATCC25923 [5]: +
minimal effective concentration [14]: 970 ± 0.21 µg/mL
minimal effective concentration [10]: 1950 ± 0.04 µg/mL
minimal effective concentration [11]: 1562 ± 0.11 µg/mL
minimal effective concentration [12]: 1950 ± 0.09 µg/mL

MIC [6]: 600 ± 0.12 µg/mL (≈ 2520 µM)
MIC [7]: 600 ± 0.02 µg/mL (≈ 2520 µM)
MIC [8]: 3571 ± 0.08 µg/mL (≈ 15000 µM)
MIC [9]: 600 ± 0.04 µg/mL (≈ 2520 µM)
SMILES: O=C1CN(/N=C/c2ccc([N+](=O)[O-])o2)C(=O)N1 [Nitrofurantoin, nitrofurantoin, reference compound]
Qualitative antimicrobial activity, Enterococcus faecalis ATCC29212 [2]: +
Qualitative antimicrobial activity, Escherichia coli ATCC25922 [3]: +
Qualitative antimicrobial activity, Pseudomonas aeruginosa ATCC27853 [4]: +
Qualitative antimicrobial activity, Staphylococcus aureus ATCC25923 [5]: +
minimal effective concentration [14]: 600 ± 0.17 µg/mL
minimal effective concentration [10]: 600 ± 0.03 µg/mL
minimal effective concentration [11]: 550 ± 0.23 µg/mL
minimal effective concentration [12]: 2230 ± 0.13 µg/mL
